Results on one molecule are retold here after patent US20080132466A1, “Blood Cholesterol Reducing Oral Composition” (priority 2005, published 2008).

This test deals with Wister-ST male rats. Kind of test: Total plasma cholesterol lowering effect of DFA and isoflavone in combination, rats fed for 19 days. Format: in vivo. The settings on record: 1.5% in isoflavone-containing feed. The text has this: A total plasma cholesterol lowering effect was studied using DFA and an isoflavone in combination.
After preliminary feeding 21 Wister-ST male rats (6 weeks of age) a non-isoflavone feed for 3 days, the animals were divided into 3 groups (each n=7) by a body weight stratification procedure and were individually fed for 19 days a basal feed containing 0.25% food product supplemented with 40% isoflavone (basal diet group), a feed in which cellulose in the basal feed was replaced with 1.5% (final) DFA III (DFA III group), and a feed in which cellulose in the basal feed was replaced with 1.5% (final) fructooligosaccharide (FOS group), as shown in Table 1. On the 20th day, blood samples were taken from the abdominal aorta to obtain plasma by centrifugation and the total plasma cholesterol was measured using an automatic analyzer (DRI-CHEM 3500, Fuji Film Medical).
In the table, figures with different alphabets, a and b, denote that there is a significant difference between the figures. […] The level of HDL cholesterol was slightly low in the DFA III group; however, the differences between the groups were not significant.

Each structure is given as a SMILES string.

Consider `OC[C@H]1O[C@@]2(CO[C@]3(CO)O[C@H](CO)[C@@H](O)[C@@H]3O2)[C@@H](O)[C@@H]1O` [DFA III, difructose anhydride], for which the “level of HDL cholesterol (in words)” value (differences between groups not significant) is reported as “slightly low”. In addition, the “total serum cholesterol level compared to the group fed an isoflavone alone (in words)” value (p=0.051 (Sheffe) basal diet vs DFA III) is reported as “tended to be lowered”.
